Consider 25 compounds from US20130324404A1, “1, 8 -DIAZASPIRO [4.5] DECANE- 2, 4 -DIONE DERIVATIVES USEFUL AS PESTICIDES” (SYNGENTA PARTICIPATIONS AG, priority 2010, published 2013).

Series [1] concerns Myzus persicae (green peach aphid). Nature of the series: Example B1: Activity against Myzus persicae, mixed population, feeding/residual contact activity, preventive (sunflower leaf discs). The note with it: foliar, 144 h, sprayed sunflower leaf discs, 6 days incubation. In kind it is in vivo. Here is the method: (§1) Activity Against Myzus persicae (Green Peach Aphid)
(§2) (Mixed Population, Feeding/Residual Contact Activity, Preventive)
Sunflower leaf discs are placed on agar in a 24-well microtiter plate and sprayed with test solutions. After drying, the leaf discs are infested with an aphid population of mixed ages. After an incubation period of 6 days, samples are checked for mortality and special effects (e.g. phytotoxicity).

Series [2] shares this test system. Nature of the series: Example B5: Activity against Myzus persicae, mixed population, feeding/residual contact activity (infested cabbage plants, spray chamber). In kind it is in vivo. The following applies: 144 h, infested cabbage plants sprayed, 6 days after treatment. The procedure:
as §1
(§3) (Mixed Population, Feeding/Residual Contact Activity, Plant Damage Evaluation)
(§4) Cabbage plants infested with a mixed population of Myzus persicae are treated with diluted test solutions of the compounds in a spray chamber. 6 days after treatment, samples are checked for mortality and for plant damage (phytotoxicity), visual assessment being made using a 0-100% rating scale (100%=total damage to plant; 0%=no damage to plant). In this test, compounds listed in the tables above show good activity against Myzus persicae and acceptable plant compatibility. For example compounds P1.1, P1.2, P1.3, P1.4, P1.6, P1.7, P1.8, P1.9, P1.10, P1.11 and P1.12 show an activity of greater or equal to 80% against Myzus persicae and damage to cabbage plants less or equal to 10% at a concentration of 200 ppm.

Series [3] has the same test system. Nature of the series: Example B2: Activity against Myzus persicae, mixed population, systemic/feeding activity, curative (pea seedlings). It counts as in vivo. The following applies: 144 h, roots of infested pea seedlings in test solution, 6 days, systemic.
From the text: as §1
(Mixed Population, Systemic/Feeding Activity, Curative)
Roots of pea seedlings, infested with an aphid population of mixed ages, are placed directly in the test solutions. 6 days after introduction, samples are checked for mortality and special effects on the plant.

Series [4] relates to cabbage plants. The following applies: in vivo, 6 days, 200 ppm. Here is the method: as §1, §3, §4
Series [5] concerns Thrips tabaci (onion thrips). Nature of the series: Example B3: Activity against Thrips tabaci, mixed population, feeding/residual contact activity, preventive (sunflower leaf discs). It counts as in vivo. The note with it: foliar, 144 h, sprayed sunflower leaf discs, 6 days incubation. The procedure: Activity Against Thrips tabaci (Onion Thrips)
as §2
Sunflower leaf discs are placed on agar in a 24-well microtiter plate and sprayed with test solutions. After drying, the leaf discs are infested with a thrips population of mixed ages. After an incubation period of 6 days, samples are checked for mortality and special effects (e.g. phytotoxicity).

The test system of series [6] is Tetranychus urticae (two-spotted spider mite). Nature of the series: whole plant or invertebrate. It counts as in vivo. The note with it: foliar, 192 h, read-out: activity (egg, larval and adult mortality) against Tetranychus urticae.
From the text: Activity Against Tetranychus urticae (Two-Spotted Spider Mite)
as §2
Bean leaf discs on agar in 24-well microtiter plates are sprayed with test solutions. After drying, the leaf discs are infested with mite populations of mixed ages. 8 days later, discs are checked for egg mortality, larval mortality, and adult mortality.

Each structure is given as a SMILES string.

Turning to `CON1CCC2(CC1)C(O)=C(c1c(C)cc(Cl)cc1C)C(=O)N2O` [Compound P2.103, 3-(4-Chloro-2,6-dimethyl-phenyl)-1,4-dihydroxy-8-methoxy-1,8-diaza-spiro[4.5]dec-3-en-2-one], the melting point fell in the range of 228 to 231 °C.

For `CCON1C(=O)C(Cl)(c2c(C)cc(C)cc2C)C(=O)C12CCN(OC)CC2` (centres unmarked) [Compound P1.3], the mortality at 400 ppm in series [1], in series [3] and in series [5] was above 80% in each case. This compound also showed a mortality at 200 ppm in series [2] of at least 80%. Besides, in series [4], the “damage to cabbage plants (phytotoxicity), 0-100% rating scale” value (shortened to “damage … 0-100% rating scale”) is at most 10%.

`CON1CCC2(CC1)C(O)=C(c1c(C)cc(C)cc1C)C(=O)N2OCCOC1CCCCO1` (centres unmarked) [Compound P2.22] yielded a melting point of 135 to 137 °C.

For the compound `CON1CCC2(CC1)C(O)=C(c1c(C)cc(Cl)cc1C)C(=O)N2OC` [Compound P2.102], the melting point is 88 to 92 °C.

The compound `COCCON1C(=O)C(c2c(C)cc(Cl)cc2C)=C(O)C12CCN(OC)CC2` [Compound P2.101] came in with a melting point of 161 to 164 °C.

As to `CON1CCC2(CC1)C(O)=C(c1c(C)cc(C)cc1C)C(=O)N2OCC1CCCCC1` [Compound P2.96], the melting point lay in the range of 169 to 172 °C.

For `COCCON1C(=O)C(Cl)(c2cc(-c3ccc(Cl)cc3)c(F)cc2C)C(=O)C12CCN(OC)CC2` (centres unmarked) [Compound P1.13], the mortality at 400 ppm in series [6] is above 80%.

For `CON1CCC2(CC1)C(=O)C(c1c(C)ccc(Cl)c1C)([N+](=O)[O-])C(=O)N2OC` (centres unmarked) [Compound P1.8, 3-(3-Chloro-2,6-dimethyl-phenyl)-1,8-dimethoxy-3-nitro-1,8-diaza-spiro[4.5]decane-2,4-dione], the mortality at 200 ppm in series [2] was at least 80%. In addition, the “damage … 0-100% rating scale” value in series [4] is reported as at most 10%.

With `COCON1C(=O)C(c2c(C)cc(Cl)cc2C)=C(O)C12CCN(OC)CC2` [Compound P2.104], the melting point lay in the range of 176 to 178 °C.

`CON1CCC2(CC1)C(=O)C(Cl)(c1c(C)cc(C)cc1C)C(=O)N2OC1CCCCC1` (centres unmarked) [Compound P1.6] came in with a mortality at 200 ppm in series [2] of at least 80%. Moreover, in series [4], the “damage … 0-100% rating scale” value is reported as at most 10%.

For `COCON1C(=O)C(c2cc(Br)c(F)cc2C)=C(O)C12CCN(OC)CC2` [Compound P2.89], the melting point lay within 64 to 67 °C.

`COCON1C(=O)C(c2c(F)ccc(C)c2Cl)=C(O)C12CCN(OC)CC2` [Compound P2.60] showed a melting point of 155 to 158 °C.

For the compound `CON1CCC2(CC1)C(O)=C(c1cc(Br)c(C)cc1C)C(=O)N2OC` [Compound P2.75], the melting point was in the range of 86 to 87 °C.

On to `COCON1C(=O)C(c2c(C)cc(-c3ccc(Cl)cc3)cc2C)=C(O)C12CCN(OC)CC2` [Compound P2.15, 3-(4′-Chloro-3,5-dimethyl-biphenyl-4-yl)-4-hydroxy-8-methoxy-1-methoxymethoxy-1,8-diaza-spiro[4.5]dec-3-en-2-one], for which the melting point is 128 °C (dec.).

Regarding `COCON1C(=O)C(Cl)(c2cc(C)ccc2C)C(=O)C12CCN(OC)CC2` (centres unmarked) [Compound P1.1, 3-Chloro-3-(2,5-dimethyl-phenyl)-8-methoxy-1-methoxymethoxy-1,8-diaza-spiro[4.5]decane-2,4-dione], the mortality at 400 ppm in series [1] and in series [3] was above 80% in each case. In series [2], this compound displayed a mortality at 200 ppm of at least 80%. Also, the “damage … 0-100% rating scale” value in series [4] was at most 10%.

The compound `CON1CCC2(CC1)C(O)=C(c1c(C)cc(Cl)cc1C)C(=O)N2OC1CCCO1` (centres unmarked) [Compound P2.105] yielded a melting point of 137 to 139 °C.

`CON1CCC2(CC1)C(=O)C(Cl)(c1c(C)cc(C)cc1C)C(=O)N2OCC1CCCC1` (centres unmarked) [Compound P1.4] returned a mortality at 200 ppm in series [2] of at least 80%. Also, the “damage … 0-100% rating scale” value in series [4] is given as at most 10%.

In the case of `CON1CCC2(CC1)C(=O)C(Cl)(c1c(C)cc(C)cc1C)C(=O)N2OCC1CCOC1` (centres unmarked) [Compound P1.9], the mortality at 400 ppm in series [1] and in series [3] was above 80% throughout. For the same compound, the mortality at 200 ppm in series [2] is at least 80%. The “damage … 0-100% rating scale” value in series [4] is at most 10%.

Turning to `COCCON1C(=O)C(Cl)(c2cc(C)c(C)cc2Cl)C(=O)C12CCN(OC)CC2` (centres unmarked) [Compound P1.7, 3-Chloro-3-(2-chloro-4,5-dimethyl-phenyl)-8-methoxy-1-(2-methoxy-ethoxy)-1,8-diaza-spiro[4.5]decane-2,4-dione], the mortality at 400 ppm in series [1] and in series [3] was above 80% in each case. Also, in series [2], the mortality at 200 ppm is at least 80%. The “damage … 0-100% rating scale” value in series [4] was at most 10%.

In the case of `COCCON1C(=O)C(c2cc(Br)c(C)cc2C)=C(O)C12CCN(OC)CC2` [Compound P2.73], the melting point is 63 to 64 °C.

`CON1CCC2(CC1)C(=O)C(Cl)(c1cc(Br)c(C)cc1C)C(=O)N2OC` (centres unmarked) [Compound P1.12] showed a mortality at 200 ppm in series [2] of at least 80%. Besides, in series [4], the “damage … 0-100% rating scale” value is given as at most 10%.

For the compound `CON1CCC2(CC1)C(=O)C(Cl)(c1c(C)cc(C)cc1C)C(=O)N2OC1CCOC1` (centres unmarked) [Compound P1.11], the mortality at 200 ppm in series [2] is at least 80%. The mortality at 400 ppm in series [3] was above 80%. For the same compound, the “damage … 0-100% rating scale” value in series [4] is listed as at most 10%.

For `COCCON1C(=O)C(c2cc(Br)c(F)cc2C)=C(O)C12CCN(OC)CC2` [Compound P2.87], the melting point fell in the range of 71 to 74 °C.

Consider `CON1CCC2(CC1)C(=O)C(Cl)(c1c(C)cc(C)cc1C)C(=O)N2OCC1CCOCC1` (centres unmarked) [Compound P1.10], for which the mortality at 400 ppm in series [1] and in series [3] was above 80% throughout. Moreover, in series [2], the mortality at 200 ppm is at least 80%. The “damage … 0-100% rating scale” value in series [4] is given as at most 10%.

Regarding `COCCON1C(=O)C(Cl)(c2c(C)cc(C)cc2C)C(=O)C12CCN(OC)CC2` (centres unmarked) [Compound P1.2], the mortality at 400 ppm in series [1] and in series [3] was above 80% throughout. For the same compound, the mortality at 200 ppm in series [2] was at least 80%. Further, the “damage … 0-100% rating scale” value in series [4] is at most 10%.

The term melting point denotes the temperature of the solid-liquid transition. As usually defined, the mortality is the share of the test organisms that died.
